Here are results for one compound from PMC8366290, “Efficacy of a Novel Bi-Steric mTORC1 Inhibitor in Models of B-Cell Acute Lymphoblastic Leukemia” (Frontiers in Oncology, 2021).

Broadly, the EC50 is the concentration giving half of the maximal effect. A low value points to higher potency in that assay.

In this experiment the target is T1, mTOR (mTORC1) (Homo sapiens, UniProt P42345).
T1 construct: with raptor (mTORC1 complex)
Briefly: MSD electrochemiluminescent assay of p4E-BP1 T37/T46 in SUP-B15 cells, with immunoblot. It counts as cell-based.

For `CO[C@H]1C[C@@H]2CC[C@@H](C)[C@@](O)(O2)C(=O)C(=O)N2CCCC[C@H]2C(=O)O[C@H]([C@H](C)C[C@@H]2CC[C@@H](OCCCCc3cn(CCOCCOCCOCCOCCOCCOCCOCCOCCC(=O)NCCCCn4nc(-c5cc6cc(O)ccc6[nH]5)c5c(N)ncnc54)nn3)[C@H](OC)C2)CC(=O)[C@H](C)/C=C(\C)[C@@H](O)[C@@H](OC)C(=O)[C@H](C)C[C@H](C)/C=C/C=C/C=C/1C` [RMC-4627], the EC50 worked out at 2 nM.
